Residue numbers refer to the chain shown, from its start. Several values for one entry are separate records, joined by “and”; a condition that tells them apart may be missing. Identical values can stand only once.

For one data set, the target named is T1, K2P2.1 (TREK-1) (Mus musculus, UniProt P97438).
T1 construct: expressed in transfected cells; host or cells: Xenopus laevis oocytes injected with mRNA (pGEMHE/pMO vector)
T1 sequence (P97438 1-411 isoform P97438-2): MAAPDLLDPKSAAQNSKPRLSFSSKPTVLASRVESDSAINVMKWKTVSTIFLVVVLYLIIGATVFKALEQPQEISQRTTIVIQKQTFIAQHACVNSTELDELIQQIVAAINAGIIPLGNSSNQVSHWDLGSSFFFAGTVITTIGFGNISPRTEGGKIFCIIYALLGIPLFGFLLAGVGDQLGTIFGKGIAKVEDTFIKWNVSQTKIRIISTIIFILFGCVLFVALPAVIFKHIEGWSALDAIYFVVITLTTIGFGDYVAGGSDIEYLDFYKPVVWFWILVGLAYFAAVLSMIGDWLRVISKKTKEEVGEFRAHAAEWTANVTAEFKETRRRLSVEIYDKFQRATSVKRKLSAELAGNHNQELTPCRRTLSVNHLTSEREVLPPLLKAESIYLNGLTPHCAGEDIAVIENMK
Put plainly: Two-electrode voltage clamp (TEVC) in Xenopus oocytes. In kind it is cell-based. The following applies: for TREK-1 activity class: Fold-activation at 20 uM in oocytes; for Fold-activation (I activator/I control): currents at 0 mV. From the text: (§1) Mouse K2P2.1 (TREK-1) (Genbank accession number: NP_034737.2), mouse K2P10.1 (TREK-2) (NM_001316665.1), mouse K2P4.1 (TRAAK) (NM_008431.3), human K2P4.1 (TRAAK) (NM_033310.2) and mouse K2P18.1(TRESK) (NM_207261.3) were used for this study. Point mutations were introduced by site-directed mutagenesis using custom primers and confirmed by sequencing before use. For studies using Xenopus oocytes, K2P channels were subcloned into a previously reported pGEMHE/pMO vector (46). For expression in HEK293 cells, mouse K2P2.1 (TREK-1) and mutants were expressed from a previously described pIRES2-EGFP vector in HEK293 cells (46,47). K2P2.1 (TREK-1) tandems were constructed by connecting the open reading frames for the individual subunits with a linker encoding the […] (SEQ ID NO: 19) sequence. Tandems used for HEK293 cells included an N-terminal HA tag ([…] (SEQ ID NO: 20)) on the first subunit.
(§2) Xenopus laevis oocytes were harvested according to UCSF IACUC Protocol AN129690 and digested using collagenase (Worthington Biochemical Corporation, #LS004183, 0.8-1.0 mg/mL) in Ca^21-free ND96 (96 mM NaCl, 2 mM KCl, 3.8 mM MgCl2, 5 mM HEPES pH 7.4) immediately post-harvest, as previously reported (31,33). Oocytes were maintained at 18° C. in ND96 (96 mM NaCl, 2 mM KCl, 1.8 mM CaCl2, 2 mM MgCl2, 5 mM HEPES pH 7.4) supplemented with antibiotics (100 units mL^−1 penicillin, 100 μg mL^−1 streptomycin, 50 μg mL^−1 gentimycin) and used for experiments within one week of harvest.
(§3) Defolliculated stage V-VI oocytes were microinjected with 0.5-36 ng mRNA and currents were recorded within 16-48 h hours of injection.
(§4) For recordings, oocytes were impaled with borosilicate recording microelectrodes (0.4-2.0 MΩ resistance) backfilled with 3 M KCl and were subjected to constant perfusion of ND96 at a rate of 3 ml min^−1. Recording solutions containing K2P activators were prepared immediately prior to use from DMSO stocks (20-100 mM), with final DMSO concentrations of 0.1%. Currents were evoked from a −80 mV holding potential followed by a 300 ms ramp from −150 mV to +50 mV. Data were recorded using a GeneClamp 500B amplifier (MDS Analytical Technologies) controlled by pCLAMP8 software (Molecular Devices), and digitized at 1 kHz using Digidata 1332 Å digitizer (MDS Analytical Technologies). For each recording, control solution (ND96) was perfused over a single oocyte until current was stable before switching to solutions containing the test compounds at various concentrations. Representative traces and dose response plots were generated in GraphPad Prism 9.
On the technique in general: Two-electrode voltage clamp holds a large cell at a set potential and records current.

The target of a further data set is T2, TREK-2 (Mus musculus, UniProt Q8BUW1).
T2 construct: expressed in transfected cells; host or cells: Xenopus laevis oocytes injected with mRNA
T2 sequence (Q8BUW1 with tags, fused parts or gaps): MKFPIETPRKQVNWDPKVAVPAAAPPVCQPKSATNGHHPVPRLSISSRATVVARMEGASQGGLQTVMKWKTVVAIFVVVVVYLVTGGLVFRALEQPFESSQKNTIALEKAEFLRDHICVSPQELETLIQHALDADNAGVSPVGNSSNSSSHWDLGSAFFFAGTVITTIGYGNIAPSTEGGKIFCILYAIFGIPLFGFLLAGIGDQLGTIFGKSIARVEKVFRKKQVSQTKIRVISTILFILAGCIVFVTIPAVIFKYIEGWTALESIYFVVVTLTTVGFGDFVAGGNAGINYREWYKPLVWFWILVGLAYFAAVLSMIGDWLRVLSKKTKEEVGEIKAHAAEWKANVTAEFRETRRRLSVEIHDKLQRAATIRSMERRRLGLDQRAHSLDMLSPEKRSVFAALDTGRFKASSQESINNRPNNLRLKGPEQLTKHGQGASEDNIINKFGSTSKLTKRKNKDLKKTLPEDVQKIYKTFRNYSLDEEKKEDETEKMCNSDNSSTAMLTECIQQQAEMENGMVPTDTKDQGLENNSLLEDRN
As to the kind of experiment: TEVC in Xenopus oocytes. In kind it is cell-based. The following applies: Fold-activation at 20 uM in oocytes.
From the text: as §1, §2, §3, §4

Data set [1] deals with T3, TREK-1^CG* (K2P2.1 (TREK-1) S131C) (Mus musculus, UniProt P97438, S146C).
T3 construct: expressed in transfected cells; host or cells: Xenopus laevis oocytes injected with mRNA
T3 sequence (P97438 1-411 isoform P97438-2 S131C): T1 sequence (P97438 1-411 isoform P97438-2) with S131C
Put plainly: TEVC in Xenopus oocytes. Format: cell-based. Particulars: for TREK-1 GC activity class: Fold-activation at 20 uM in oocytes.
From the text: as §1, §2, §3, §4

Another data set deals with T4, K2P10.1 (TREK-2)^CG* (Mus musculus, UniProt Q8BUW1, S153C).
T4 construct: Modified TREK-2 from Mus musculus; expressed in transfected cells; host or cells: Xenopus laevis oocytes injected with mRNA
T4 sequence (Q8BUW1 with tags, fused parts or gaps S153C): T2 sequence (Q8BUW1 with tags, fused parts or gaps) with S156C
Put plainly: TEVC in Xenopus oocytes. Format: cell-based. The following applies: Fold-activation at 20 uM in oocytes.
From the text: as §1, §2, §3, §4

The target in a further data set is T5, K2P2.1 (TREK-1) S131A (Mus musculus, UniProt P97438, S146A).
T5 construct: expressed in transfected cells; host or cells: Xenopus laevis oocytes injected with mRNA
T5 sequence (P97438 1-411 isoform P97438-2 S131A): T1 sequence (P97438 1-411 isoform P97438-2) with S131A
Put plainly: TEVC in Xenopus oocytes. In kind it is cell-based. Particulars: 20 μM, 0 mV.
From the text: as §1, §2, §3, §4

The nature of data set [2]: Solubility in aqueous solutions (crystallization sample preparation). In kind it is physicochemical. The protocol: K2P2.1cryst ML335 and ML402 complex crystals grew in the same conditions as K2P2.1cyst, but the protein was incubated for at least 1 h with 2.5 mM of activator before setting the crystal plates. […] Then each compound was diluted 1:100 in SEC buffer to 5 mM concentration, giving a milky solution. This solution was mixed 1:1 to K2P2.1cryst previously concentrated to 12 mg ml^−1. […] The samples were briefly centrifuged in a table-top centrifuge (10,000 g) to remove any insoluble material before setting the crystal plates.

The target of another data set is T6, K2P4.1 (TRAAK) (Homo sapiens, UniProt Q9NYG8).
T6 sequence (Q9NYG8 1-393): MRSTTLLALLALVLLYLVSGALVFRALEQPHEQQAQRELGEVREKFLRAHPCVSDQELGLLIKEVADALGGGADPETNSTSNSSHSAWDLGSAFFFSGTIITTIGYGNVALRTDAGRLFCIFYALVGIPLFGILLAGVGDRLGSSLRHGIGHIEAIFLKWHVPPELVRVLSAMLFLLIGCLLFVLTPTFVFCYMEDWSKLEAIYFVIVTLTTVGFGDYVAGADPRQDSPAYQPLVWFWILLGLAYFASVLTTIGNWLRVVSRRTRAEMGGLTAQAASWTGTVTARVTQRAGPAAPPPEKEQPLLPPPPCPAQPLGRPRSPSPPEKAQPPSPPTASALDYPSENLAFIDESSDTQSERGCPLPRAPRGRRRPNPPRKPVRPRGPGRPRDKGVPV
Particulars: previous studies; cited from earlier work.

`O=C(NCc1ccc(Cl)cc1Cl)c1ccc(N2C(=O)C=CC2=O)cc1` [Entry 16]: the TREK-1 activity class entry at K2P2.1 (TREK-1) is on record as “+ (1.5-2.5 fold)”. The TREK-2 activity class entry at TREK-2 was “+ (1.5-2.5 fold)”. In addition, the “TREK-1 GC activity class” value in data set [1] is “+++ (>5 fold)”. Besides, the “TREK-2 GC activity class” value at K2P10.1 (TREK-2)^CG* is reported as “+++ (>5 fold)”.
For `CC1=C(C)C(=O)N(c2ccc(C(=O)NCc3ccc(Cl)cc3Cl)cc2)C1=O` [Entry 20], in data set [1], the “TREK-1 GC activity class” value was “++ (2.5-5 fold)”. In addition, on K2P10.1 (TREK-2)^CG*, the “TREK-2 GC activity class” value was “+ (1.5-2.5 fold)”.
`C=CC(=O)Nc1ccc(C(=O)NCc2ccc(Cl)cc2Cl)cc1` [ML336]: the “Reversibility of activation on washout” value on K2P2.1 (TREK-1) (20 μM, Xenopus oocytes) is recorded as “sustained following washout”. Moreover, the “Fold-activation (I activator/I control)” value is 10+1.0 fold and 10.0 (FIG. 1) fold at K2P2.1 (TREK-1) (20 μM, Xenopus oocytes); 16.1 (FIG. 1) fold at K2P2.1 (TREK-1) S131A.
Take `O=C(NCc1ccc(Cl)cc1Cl)c1ccc(N2C(=O)CCC2=O)cc1` [CAT335c]: the “Fold-activation (I activator/I control)” value is 2.09 ± 0.14 fold on K2P2.1 (TREK-1) (20 μM, Xenopus oocytes) and 5.0 ± 0.4 fold in data set [1] (20 μM, 0 mV, Xenopus oocytes). Besides, the “Reversibility of activation on washout” value in data set [1] (20 μM, Xenopus oocytes) is reported as “reversible”.
With `C=C1CC(=O)N(c2ccc(C(=O)NCc3ccc(Cl)cc3Cl)cc2)C1=O` [Entry 17], the TREK-1 activity class result at K2P2.1 (TREK-1) was “+ (1.5-2.5 fold)”. Moreover, in data set [1], the “TREK-1 GC activity class” value is on record as “++ (2.5-5 fold)”.
On the same counts, the results for `C=CC(=O)Nc1ccc(C(=O)NCc2ccc(Cl)cc2Cl)cc1` [Entry 1] are “+++ (>5 fold)” and “+++ (>5 fold)”.
Take `CC1=CC(=O)N(c2ccc(C(=O)NCc3ccc(Cl)cc3Cl)cc2)C1=O` [Entry 15]: at K2P2.1 (TREK-1), the TREK-1 activity class entry is on record as “+ (1.5-2.5 fold)”. For the same compound, the TREK-2 activity class result at TREK-2 is “+ (1.5-2.5 fold)”. For the same compound, the “TREK-1 GC activity class” value in data set [1] is listed as “+++ (>5 fold)”. At K2P10.1 (TREK-2)^CG*, the “TREK-2 GC activity class” value is recorded as “+++ (>5 fold)”.
For `C#CCNC(=O)CCC(=C)C(=O)Nc1ccc(C(=O)NCc2ccc(Cl)cc2Cl)cc1` [Entry 2], the TREK-1 activity class entry at K2P2.1 (TREK-1) is “+++ (>5 fold)”. The “TREK-1 GC activity class” value in data set [1] was “+++ (>5 fold)”.
Consider `Cc1cc(Cl)ccc1OCCNC(=O)c1cccs1` [ML402], for which the “Solubility in aqueous solutions” value in data set [2] was “insoluble in aqueous solutions”. For the same compound, on K2P4.1 (TRAAK), the “Sensitivity of channel to activator” value is on record as “insensitive”.

The record behind these values is patent US20260098008A1, “COVALENT, CHEMOGENETIC ACTIVATORS FOR K2P POTASSIUM CHANNELS AND USES THEREOF” (THE REGENTS OF THE UNIVERSITY OF CALIFORNIA, priority 2022, published 2026).
